Source: the supplement of paper PMC10307832

Columns and labels:
Assay in all cases: relative viability (nuclei count vs DMSO), 5 days (fraction); higher = more cells survive
[1] = compound: C1CC1C(=O)NC2=NNC3=C2C=CC(=C3)C4=CC(=CC=C4)C(=O)NC5CC5 [XMD13-2] + Nc1nc2[nH]cc(CCc3ccc(C(=O)N[C@@H](CCC(=O)O)C(=O)O)cc3)c2c(=O)[nH]1 [Pemetrexed] (partner 0.2 µM)
Outline: (§1)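 The day after seeding in 1536-well plates, lung cancer cell lines were treated by pin tool with a single drug, or with a fixed anchor-drug dose together with five library-drug doses (not always all listed) in √10 steps. After 5 days, a combined fix-and-stain solution (final 0.05% Triton X-100, 1% formaldehyde, 1 ug/ml Hoechst) was added. Nuclei counted on 4× images gave relative viability as treated counts over vehicle counts, reported as the median of duplicate plates.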

[2] = compound: C1CC1C(=O)NC2=NNC3=C2C=CC(=C3)C4=CC(=CC=C4)C(=O)NC5CC5 [XMD13-2] + O=C(c1cc(Cc2n[nH]c(=O)c3ccccc23)ccc1F)N1CCN(C(=O)C2CC2)CC1 [Olaparib] (partner 8 µM)
Outline: as §1

[3] = compound: Cc1ccc(C(=O)Nc2cccc(C(F)(F)F)c2)cc1Nc1cncc(C(N)=O)c1 [ALW-II-49-7] + CC(=O)Nc1cccc(-n2c(=O)n(C3CC3)c(=O)c3c(Nc4ccc(I)cc4F)n(C)c(=O)c(C)c32)c1 [Trametinib] (partner 0.02 µM)
Outline: as §1

[4] = compound: Cc1ccc(C(=O)Nc2cccc(C(F)(F)F)c2)cc1Nc1cncc(C(N)=O)c1 [ALW-II-49-7] + O=C(CCCCCCC(=O)Nc1ccccc1)NO [Vorinostat] (partner 1 µM)
Outline: as §1

NCI-H650
relative viability ([1]; first compound 0.05 µM): 0.938
relative viability ([1]; first compound 0.1581 µM): 0.995
relative viability ([1]; first compound 0.5 µM): 1.04
relative viability ([1]; first compound 1.581 µM): 0.772
relative viability ([1]; first compound 5 µM): 0.958
relative viability ([2]; first compound 0.05 µM): 0.379
relative viability ([2]; first compound 0.1581 µM): 0.379
relative viability ([2]; first compound 0.5 µM): 0.424
relative viability ([2]; first compound 1.581 µM): 0.462
relative viability ([2]; first compound 5 µM): 0.356
relative viability ([3]; first compound 0.08 µM): 0.876
relative viability ([3]; first compound 0.253 µM): 1.16
relative viability ([3]; first compound 0.8 µM): 0.993
relative viability ([3]; first compound 2.53 µM): 0.996
relative viability ([3]; first compound 8 µM): 0.929
relative viability ([4]; first compound 0.08 µM): 0.351
relative viability ([4]; first compound 0.253 µM): 0.461
relative viability ([4]; first compound 0.8 µM): 0.579
relative viability ([4]; first compound 2.53 µM): 0.42
relative viability ([4]; first compound 8 µM): 0.374

NCI-H1650
relative viability ([1]; first compound 0.05 µM): 0.351
relative viability ([1]; first compound 0.1581 µM): 0.388
relative viability ([1]; first compound 0.5 µM): 0.348
relative viability ([1]; first compound 1.581 µM): 0.418
relative viability ([1]; first compound 5 µM): 0.395
relative viability ([2]; first compound 0.05 µM): 0.78
relative viability ([2]; first compound 0.1581 µM): 0.903
relative viability ([2]; first compound 0.5 µM): 0.809
relative viability ([2]; first compound 1.581 µM): 0.795
relative viability ([2]; first compound 5 µM): 0.827
relative viability ([3]; first compound 0.08 µM): 0.438
relative viability ([3]; first compound 0.253 µM): 0.688
relative viability ([3]; first compound 0.8 µM): 0.557
relative viability ([3]; first compound 2.53 µM): 0.666
relative viability ([3]; first compound 8 µM): 0.78
relative viability ([4]; first compound 0.08 µM): 0.518
relative viability ([4]; first compound 0.253 µM): 0.656
relative viability ([4]; first compound 0.8 µM): 0.563
relative viability ([4]; first compound 2.53 µM): 0.524
relative viability ([4]; first compound 8 µM): 0.576

NCI-H2009
relative viability ([1]; first compound 0.05 µM): 1.01
relative viability ([1]; first compound 0.1581 µM): 1.1
relative viability ([1]; first compound 0.5 µM): 1.01
relative viability ([1]; first compound 1.581 µM): 1.01
relative viability ([1]; first compound 5 µM): 1.07
relative viability ([2]; first compound 0.05 µM): 0.663
relative viability ([2]; first compound 0.1581 µM): 0.685
relative viability ([2]; first compound 0.5 µM): 0.727
relative viability ([2]; first compound 1.581 µM): 0.673
relative viability ([2]; first compound 5 µM): 0.745
relative viability ([3]; first compound 0.08 µM): 0.247
relative viability ([3]; first compound 0.253 µM): 0.32
relative viability ([3]; first compound 0.8 µM): 0.299
relative viability ([3]; first compound 2.53 µM): 0.341
relative viability ([3]; first compound 8 µM): 0.266
relative viability ([4]; first compound 0.08 µM): 0.749
relative viability ([4]; first compound 0.253 µM): 0.838
relative viability ([4]; first compound 0.8 µM): 0.731
relative viability ([4]; first compound 2.53 µM): 0.695
relative viability ([4]; first compound 8 µM): 0.657

COR-L23
relative viability ([1]; first compound 0.05 µM): 0.197
relative viability ([1]; first compound 0.1581 µM): 0.194
relative viability ([1]; first compound 0.5 µM): 0.204
relative viability ([1]; first compound 1.581 µM): 0.218
relative viability ([1]; first compound 5 µM): 0.197
relative viability ([2]; first compound 0.05 µM): 0.327
relative viability ([2]; first compound 0.1581 µM): 0.36
relative viability ([2]; first compound 0.5 µM): 0.33
relative viability ([2]; first compound 1.581 µM): 0.336
relative viability ([2]; first compound 5 µM): 0.387
relative viability ([3]; first compound 0.08 µM): 0.576
relative viability ([3]; first compound 0.253 µM): 0.514
relative viability ([3]; first compound 0.8 µM): 0.648
relative viability ([3]; first compound 2.53 µM): 0.566
relative viability ([3]; first compound 8 µM): 0.43
relative viability ([4]; first compound 0.08 µM): 0.409
relative viability ([4]; first compound 0.253 µM): 0.452
relative viability ([4]; first compound 0.8 µM): 0.496
relative viability ([4]; first compound 2.53 µM): 0.414
relative viability ([4]; first compound 8 µM): 0.385
